# Measured values: US9132082B2, “Compositions and methods for inhibiting gastric acid secretion” (Vecta, Ltd., priority 2005, dated 2015)
# Legend:
# gastric pH = experiment: Further clinical study: omeprazole and SA capsules co-administered at bedtime, 24 h gastric pH; type: in vivo, human; details: 10:00 pm on empty stomach
# Description: In a further clinical study; healthy human volunteers were administered with Omeprazole and SA capsules which were co-administered at bed-time: Treatment T1-40 mg Omeprazole plus 600 mg SA; Treatment T2-40 mg Omeprazole plus 300 mg SA; Treatment T3-20 mg Omeprazole plus 300 mg SA. The study included gastric pH measurements on day 1 (first dose), day 3 (third dose) and day 5 (fifth dose). Study medications were administered at 10:00 pm on empty stomach and pH measurements were recorded for 24 hrs. The percentage time of gastric pH above 4 following the administration of SA and Omeprazole was calculated after the first dose, the third dose and the fifth dose.
# gastric acid secretion [1] = experiment: 3-way crossover clinical trial of Cap-in-Cap OMP/SA versus OMP, 24 hour intra-gastric pH; type: in vivo, human; details: OMP/SA at bedtime without food, OMP 20 mg before breakfast
# Description: Thirty-six (36), H. pylori negative, healthy human volunteers received OMP 20 mg/SA 300 mg or OMP 40 mg/SA 300 mg at bedtime without food formulated as Cap-in-Cap capsules and OMP 20 mg dosed on an empty stomach before breakfast. These drugs were tested in a 3-way, randomized crossover study. […] Each treatment was administered once daily, for 5 consecutive days with a washout period of 21-25 days between treatments. 24 Hour intra-gastric pH monitoring was performed following the fifth dose (day 5).
# [2] = system: nocturnal gastric acid secretion; experiment: Clinical study: bedtime omeprazole with succinic acid one hour later, gastric pH probe; type: in vivo, human; details: average n = 7
# Description: Succinic Acid was administered one hour following Omeprazole administration. Gastric pH was measured on Day 1 and 5 using a pH probe. The pH probe was inserted into the distal portion of the stomach and located 20 cm below the lower esophageal sphincter. Baseline measurements of gastric pH were performed before omeprazole administration and during the following 24 hours. Standard meals were administered during pH monitoring. Blood samples for PK analysis of Omeprazole were drawn on Day 1 and 5. After a washout period of at least 14 days, the same subjects were administered with Omeprazole 40 mg alone.
# gastric acid output = details: extracted from fermented alcoholic beverages; Teyssen et al.; cited from earlier work
# frog mucosa = details: ex vivo model of frog mucosa; cited from earlier work
# gastric acid secretion [3] = experiment: Conscious pylorus-ligated rats: pantoprazole alone or with succinic or maleic acid; type: in vivo; details: maleic acid 14.7 mg/kg with pantoprazole 3 mg/kg; FIG. 4
# Description: This experimental model permits the analysis of the effect of drugs on gastric acid secretion in conscious animals and avoids the effect of anesthesia on gastric acid secretion. […] The ligature was placed around the esophagus, the stomach removed and gastric content was collected. Following centrifugation, the gastric output and the pH of the gastric juice samples was determined.
# gastric acid secretion [4] = details: administered after ligation of the pylorus; FIG. 5
# Description: The possibility that succinic acid induces gastric acid secretion via local effect on the gastric lumen was tested in animals in which sodium succinate was administered after the ligation of the pylorus.
# gastric acid secretion [5] = details: 15 mg/kg per os, pylorus ligated 30 min later, gastric juice after 60 min; FIG. 1
# Description: Rats were administered (per os) with 15 mg/kg of sodium succinate (Na-SA) using gavage. 30 minutes later the rats were anesthetized with ketamine/domitor and the pylorus was ligated. Following additional 60 min, gastric juice was collected from the gastric lumen. Acid output was determined by titration with NaOH. Total acid output expressed in mEq HCl was calculated by multiplying the sample volume by the acid concentration. Results are expressed as means±SEM of 12 animals from each experimental group.
# [6] = Day 1, bedtime dosing without a meal
# [7] = Day 5, bedtime dosing without a meal
smiles,measurement,setting,value
"COc1ccc2[nH]c([S+]([O-])Cc3ncc(C)c(OC)c3C)nc2c1 (stereo not drawn) [Omeprazole, omeprazole]",% time with pH > 4 (nocturnal hours only),gastric pH; Fifth dose,Fifth dose: 49%
same,% time with pH > 4 (total 24 h),gastric pH; Fifth dose,Fifth dose: 64%
same,% time with pH > 4 (nocturnal hours only),gastric pH; First dose,First dose: 25%
same,% time with pH > 4 (total 24 h),gastric pH; First dose,First dose: 41%
same,Nighttime % time pH < 3,"gastric acid secretion [1]; 12 am-8 am, day 5",65.5%
same,Nighttime % time pH > 4,"gastric acid secretion [1]; 12 am-8 am, day 5",27.2%
same,Nighttime % time pH > 5,"gastric acid secretion [1]; 12 am-8 am, day 5",11.5%
same,24-hour % time pH < 3,gastric acid secretion [1]; day 5 (fifth dose),31.2%
same,24-hour % time pH > 4,gastric acid secretion [1]; day 5 (fifth dose),47.6%
same,24-hour % time pH > 5,gastric acid secretion [1]; day 5 (fifth dose),21.6%
same,2:00-4:00 AM (% time pH > 4),[2]; [6],32.72%
same,4:00-6:00 AM (% time pH > 4),[2]; [6],52.30%
same,12:00-2:00 AM (% time pH > 4),[2]; [6],29.57%
same,2:00-4:00 AM (% time pH > 4),[2]; [7],53.11%
same,4:00-6:00 AM (% time pH > 4),[2]; [7],64.94%
same,12:00-2:00 AM (% time pH > 4),[2]; [7],52.31%
"O=C(O)CCC(=O)O [Succinic acid, succinic acid]",gastric acid output in humans,gastric acid output,stimulate gastric acid output
same,proton secretion,frog mucosa,may stimulates proton secretion
O=C(O)CCC(=O)C(=O)O [alpha-ketoglutarate],proton secretion,frog mucosa,may stimulates proton secretion
O=C(O)CC(O)C(=O)O (stereo not drawn) [malate],proton secretion,frog mucosa,may stimulates proton secretion
O=C(O)/C=C\C(=O)O [maleic acid],gastric acid output in humans,gastric acid output,stimulate gastric acid output
same,inhibitory effect of pantoprazole on gastric acid secretion,gastric acid secretion [3],enhanced the inhibitory effect of pantoprazole
O=C([O-])CCC(=O)[O-].[Na+].[Na+] [sodium succinate],acid secretion,gastric acid secretion [4],capable of inducing acid secretion
same,gastric acid secretion (total acid output),gastric acid secretion [5],significantly enhanced gastric acid secretion
